Laboratory results reported in PubChem BioAssay AID1259411 (Chemical Carcinogenesis Research Information System (CCRIS), 2018).
Calls of active or inactive are those of the source. How the calls were made is not given here.

Test system: rodent carcinogenicity bioassays, tumor incidence
Test: CCRIS carcinogenicity studies
Procedure, shortened: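 NCI-built, expert-reviewed records of carcinogenicity and related test outcomes (mutagenicity, tumor promotion/inhibition) compiled from published and report sources, historical span 1985-2011, not updated.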

Compound: O.O.O.O.O.O.O.O=S(=O)(O)O.[Co+2]
- carcinogen call (Species: MOUSE, Strain/Sex: B6C3F1/FEMALE, Route: INHALATION, Dose: 0, 0.3, 1, 3 MG/M3 6HR/D 5 D/WK FOR 105 WK (STUDY DURATION: 105 WK), Dose: 0, 0.3, 1, 3 MG/M3 6HR/D 5 D/WK FOR 105 WK (STUDY DURATION: 105 WK), Tumor Site: Type of Lesion: LUNG: ALVEOLAR/BRONCHIOLAR ADENOMA, ALVEOLAR/BRONCHIOLAR CARCINOMA): active; positive
- carcinogen call (Species: MOUSE, Strain/Sex: B6C3F1/MALE, Route: INHALATION, Dose: 0, 0.3, 1, 3 MG/M3 6HR/D 5 D/WK FOR 105 WK (STUDY DURATION: 105 WK), Dose: 0, 0.3, 1, 3 MG/M3 6HR/D 5 D/WK FOR 105 WK (STUDY DURATION: 105 WK), Tumor Site: Type of Lesion: LUNG: ALVEOLAR/BRONCHIOLAR ADENOMA, ALVEOLAR/BRONCHIOLAR CARCINOMA): active; positive
- carcinogen call (Species: RAT, Strain/Sex: F344/FEMALE, Route: INHALATION, Dose: 0, 0.3, 1, 3 MG/M3 6HR/D 5 D/WK FOR 105 WK (STUDY DURATION: 105 WK), Dose: 0, 0.3, 1, 3 MG/M3 6HR/D 5 D/WK FOR 105 WK (STUDY DURATION: 105 WK), Tumor Site: Type of Lesion: LUNG: ALVEOLAR/BRONCHIOLAR ADENOMA, ALVEOLAR/BRONCHIOLAR CARCINOMA, ADRENAL MEDULLA: BENIGN, COMPLEX, OR MALIGNANT PHEOC): active; positive
- carcinogen call (Species: RAT, Strain/Sex: F344/N/MALE, Route: INHALATION, Dose: 0, 0.3, 1, 3 MG/M3 6HR/D 5 D/WK FOR 105 WK (STUDY DURATION: 105 WK), Dose: 0, 0.3, 1, 3 MG/M3 6HR/D 5 D/WK FOR 105 WK (STUDY DURATION: 105 WK), Tumor Site: Type of Lesion: LUNG: ALVEOLAR/BRONCHIOLAR ADENOMA): active; positive

Compound: CCCN(CCC)S(=O)(=O)c1ccc(C(=O)O)cc1
- carcinogen call (Species: MOUSE, Strain/Sex: B6C3F1/FEMALE, Route: GAVAGE, Dose: 0, 100, 400 MG/KG IN CORN OIL 5 D/WK FOR 103 WK (STUDY DURATION: 105 WK), Dose: 0, 100, 400 MG/KG IN CORN OIL 5 D/WK FOR 103 WK (STUDY DURATION: 105 WK), Tumor Site: Type of Lesion: LIVER: HEPATOCELLULAR ADENOMA OR CARCINOMA): active; positive
- carcinogen call (Species: MOUSE, Strain/Sex: B6C3F1/MALE, Route: GAVAGE, Dose: 0, 100, 400 MG/KG IN CORN OIL 5 D/WK FOR 103 WK (STUDY DURATION: 105 WK), Dose: 0, 100, 400 MG/KG IN CORN OIL 5 D/WK FOR 103 WK (STUDY DURATION: 105 WK)): inactive; negative
- carcinogen call (Species: RAT, Strain/Sex: F344/FEMALE, Route: GAVAGE, Dose: 0, 100, 400 MG/KG IN CORN OIL 5 D/WK FOR 103 WK (STUDY DURATION: 104 WK), Dose: 0, 100, 400 MG/KG IN CORN OIL 5 D/WK FOR 103 WK (STUDY DURATION: 104 WK)): inactive; negative
- carcinogen call (Species: RAT, Strain/Sex: F344/MALE, Route: GAVAGE, Dose: 0, 100, 400 MG/KG IN CORN OIL 5 D/WK FOR 103 WK (STUDY DURATION: 104 WK), Dose: 0, 100, 400 MG/KG IN CORN OIL 5 D/WK FOR 103 WK (STUDY DURATION: 104 WK)): inactive; negative

Compound: CO[C@@]12[C@H](COC(N)=O)C3=C(C(=O)C(C)=C(N)C3=O)N1C[C@@H]1N[C@@H]12
- carcinogen call (Species: RAT, Route: INTRAPERITONEAL, Tumor Site: Type of Lesion: PERITONEAL CAVITY): active; positive
- carcinogen call (Species: RAT, Route: INTRAVENOUS, Tumor Site: Type of Lesion: PERITONEAL CAVITY, MAMMARY GLAND, INTESTINES, Tumor Site: Type of Lesion: PERITONEAL CAVITY, MAMMARY GLAND, INTESTINES): active; positive

Compound: CC(/C=C/C=C(\C)C(=O)O[C@@H]1O[C@H](CO[C@@H]2O[C@H](CO)[C@@H](O)[C@H](O)[C@H]2O)[C@@H](O)[C@H](O)[C@H]1O)=C\C=C\C=C(C)\C=C\C=C(/C)C(=O)O[C@@H]1O[C@H](CO[C@@H]2O[C@H](CO)[C@@H](O)[C@H](O)[C@H]2O)[C@@H](O)[C@H](O)[C@H]1O
- carcinogen call (Species: MOUSE, Strain/Sex: C57BL/FEMALE, Route: ORAL, Dose: 0, 0.2, 0.8% IN DRINKING WATER FOR 95 WK (STUDY DURATION: 95 WK), Dose: 0, 0.2, 0.8% IN DRINKING WATER FOR 95 WK (STUDY DURATION: 95 WK)): inactive; negative
- carcinogen call (Species: MOUSE, Strain/Sex: C57BL/MALE, Route: ORAL, Dose: 0, 0.2, 0.8% IN DRINKING WATER FOR 95 WK (STUDY DURATION: 95 WK), Dose: 0, 0.2, 0.8% IN DRINKING WATER FOR 95 WK (STUDY DURATION: 95 WK)): inactive; negative

Compound: c1ccc2nc3ccc4ccccc4c3cc2c1
- carcinogen call (Species: RAT, Strain/Sex: OSBORNE-MENDEL/FEMALE, Route: LUNG IMPLANT, Dose: 0, 0.2, 1.0, 5.0 MG IN BEESWAX/TRICAPRYLIN (STUDY DURATION: LIFETIME), Dose: 0, 0.2, 1.0, 5.0 MG IN BEESWAX/TRICAPRYLIN (STUDY DURATION: LIFETIME)): inactive; negative

Compound: C=CCOC(Cn1ccnc1)c1ccc(Cl)cc1Cl (centres undefined)
- carcinogen call (Species: Mouse, Strain/Sex: Swiss/Female (50/Group), Route: Oral, Dose: 0, 50, 200, 600 ppm 93% imazalil in diet in 50:50 Aerosil:corn starch for 2 yr, study duration 2 yr, Dose: 0, 50, 200, 600 ppm 93% imazalil in diet in 50:50 Aerosil:corn starch for 2 yr, study duration 2 yr, Tumor Site: Type of Lesion: Liver: hepatocytic neoplasms): active; positive
- carcinogen call (Species: Mouse, Strain/Sex: Swiss/Male (50/Group), Route: Oral, Dose: 0, 50, 200, 600 ppm 93% imazalil in diet in 50:50 Aerosil:corn starch for 2 yr, study duration 2 yr, Dose: 0, 50, 200, 600 ppm 93% imazalil in diet in 50:50 Aerosil:corn starch for 2 yr, study duration 2 yr, Tumor Site: Type of Lesion: Liver: hepatocytic neoplasms): active; positive
- carcinogen call (Species: Rat, Strain/Sex: Cpb:WU/Female (20/Group), Route: Oral, Dose: 0, 25, 100, 400 ppm 98.1% imazalil in diet for 18 mo, study duration 18 mo, Dose: 0, 25, 100, 400 ppm 98.1% imazalil in diet for 18 mo, study duration 18 mo): inactive; negative
- carcinogen call (Species: Rat, Strain/Sex: Cpb:WU/Male (20/Group), Route: Oral, Dose: 0, 25, 100, 400 ppm 98.1% imazalil in diet for 18 mo, study duration 18 mo, Dose: 0, 25, 100, 400 ppm 98.1% imazalil in diet for 18 mo, study duration 18 mo): inactive; negative

Compound: O=S(=O)(O)c1cc(S(=O)(=O)O)c2c(N=Nc3ccc(S(=O)(=O)O)c4ccccc34)c(O)ccc2c1
- carcinogen call (Species: RAT, Strain/Sex: WISTAR/FEMALE, Route: ORAL, Dose: 0, 50, 500, 1250 MG/KG/D IN DIET TO PUPS OF PARENTS GIVEN THE SAME DIETARY DOSE LEVELS FOR 60 D PRIOR TO MATING (STUDY D, Dose: 0, 50, 500, 1250 MG/KG/D IN DIET TO PUPS OF PARENTS GIVEN THE SAME DIETARY DOSE LEVELS FOR 60 D PRIOR TO MATING (STUDY D): inactive; negative
- carcinogen call (Species: RAT, Strain/Sex: WISTAR/MALE, Route: ORAL, Dose: 0, 50, 500, 1250 MG/KG/D IN DIET TO PUPS OF PARENTS GIVEN THE SAME DIETARY DOSE LEVELS FOR 60 D PRIOR TO MATING (STUDY D, Dose: 0, 50, 500, 1250 MG/KG/D IN DIET TO PUPS OF PARENTS GIVEN THE SAME DIETARY DOSE LEVELS FOR 60 D PRIOR TO MATING (STUDY D): inactive; negative

Compound: c1ccc2c(c1)-c1ccc3ccc4cccc5cc-2c1c3c45
- carcinogen call (Species: MOUSE, Strain/Sex: ICR/FEMALE, Route: DERMAL, Tumor Site: Type of Lesion: INTEGUMENTARY SYSTEM (SKIN): PAPILLOMA, CARCINOMA): active; positive
- carcinogen call (Species: MOUSE, Strain/Sex: XVII-NC/Z/MALE, Route: SUBCUTANEOUS, Tumor Site: Type of Lesion: INJECTION SITE: SARCOMA): active; positive
- carcinogen call (Species: RAT, Strain/Sex: OSBORNE-MENDEL/FEMALE, Route: LUNG IMPLANT, Dose: 0, 0.16, 0.83, 4.15 MG IN BEESWAX/TRIOCTANOIN (STUDY DURATION: LIFETIME), Dose: 0, 0.16, 0.83, 4.15 MG IN BEESWAX/TRIOCTANOIN (STUDY DURATION: LIFETIME), Tumor Site: Type of Lesion: LUNG: EPIDERMOID CARCINOMA): active; positive

Compound: Nc1ccc(-c2ccccc2)cc1O
- carcinogen call (Species: MOUSE, Strain/Sex: SWISS/FEMALE, Route: SUBCUTANEOUS, Dose: 0, 200 UG IN 0.02 ML 3% AQUEOUS GELATIN 1/D FOR 3 D (STUDY DURATION: 52 WK)): inactive; negative
- carcinogen call (Species: MOUSE, Strain/Sex: SWISS/MALE, Route: SUBCUTANEOUS, Dose: 0, 200 UG IN 0.02 ML 3% AQUEOUS GELATIN 1/D FOR 3 D (STUDY DURATION: 52 WK), Tumor Site: Type of Lesion: LIVER: HEPATOMA): active; positive
